Measured values reported in ChEMBL document CHEMBL5620391 (Eur J Med Chem, 2023).
pIC50: −log10 of the molar value.

Key:
[1] = Apparent volume of distribution in fasted Sprague-Dawley rat at 2 mg/kg, iv measured for 24 hrs by LC-MS/MS analysis; type: ADME, organism-based; conditions: in vivo, read-out: Vz
[2] = Half life in fasted Sprague-Dawley rat at 10 mg/kg, po measured for 24 hrs by LC-MS/MS analysis; type: ADME, organism-based; conditions: in vivo
[3] = Cmax in fasted Sprague-Dawley rat at 10 mg/kg, po measured for 24 hrs by LC-MS/MS analysis; type: ADME, organism-based; conditions: in vivo
[4] = biological target: Phosphatidylinositol 4,5-bisphosphate 3-kinase catalytic subunit alpha isoform (Homo sapiens, UniProt P42336); assay: Inhibition of PI3Kalpha (unknown origin) using PIP2 as substrate incubated for 60 mins in presence of ATP by ADP-Glo assay
[5] = Toxicity in nude BALB/c mouse xenografted with human HL-60 cells assessed as toxic sign in kidney at 5 to 10 mg/kg, ip administered for 21 days consecutively by H and E staining based analysis; type: organism-based; conditions: in vivo, 504 h, dose 5-10 mg/kg, time 21 day
[6] = Toxicity in nude BALB/c mouse xenografted with human HL-60 cells assessed as body weight change at 5 to 10 mg/kg, ip administered for 21 days consecutively; type: organism-based; conditions: in vivo, 504 h, dose 5-10 mg/kg, time 21 day
[7] = AUC (0 to t) in fasted Sprague-Dawley rat at 2 mg/kg, iv measured for 24 hrs by LC-MS/MS analysis; type: ADME, organism-based; conditions: in vivo
HL-60 [8] = assay: Induction of apoptosis in human HL-60 cells assessed as viable cells at 0.25 uM incubated for 48 hrs by Annexin V-FITC/PI staining based flow cytometry (reference value: 97.4 %); type: functional; conditions: read-out: Activity
[9] = Half life in fasted Sprague-Dawley rat at 2 mg/kg, iv measured for 24 hrs by LC-MS/MS analysis; type: ADME, organism-based; conditions: in vivo
[10] = Toxicity in nude BALB/c mouse xenografted with human HL-60 cells assessed as toxic sign in liver at 5 to 10 mg/kg, ip administered for 21 days consecutively by H and E staining based analysis; type: organism-based; conditions: in vivo, 504 h, dose 5-10 mg/kg, time 21 day
[11] = Toxicity in nude BALB/c mouse xenografted with human HL-60 cells assessed as toxic sign in lung at 5 to 10 mg/kg, ip administered for 21 days consecutively by H and E staining based analysis; type: organism-based; conditions: in vivo, 504 h, dose 5-10 mg/kg, time 21 day
HL-60 [12] = assay: Induction of apoptosis in human HL-60 cells assessed as viable cells at 1 uM incubated for 48 hrs by Annexin V-FITC/PI staining based flow cytometry (reference value: 97.4 %); type: functional; conditions: read-out: Activity
[13] = AUC (0 to infinity) in fasted Sprague-Dawley rat at 2 mg/kg, iv measured for 24 hrs by LC-MS/MS analysis; type: ADME, organism-based; conditions: in vivo
[14] = Tmax in fasted Sprague-Dawley rat at 10 mg/kg, po measured for 24 hrs by LC-MS/MS analysis; type: ADME, organism-based; conditions: in vivo
[15] = Toxicity in nude BALB/c mouse xenografted with human HL-60 cells assessed as toxic sign in heart at 5 to 10 mg/kg, ip administered for 21 days consecutively by H and E staining based analysis; type: organism-based; conditions: in vivo, 504 h, dose 5-10 mg/kg, time 21 day
[16] = biological target: Phosphatidylinositol 4,5-bisphosphate 3-kinase catalytic subunit beta isoform (Homo sapiens, UniProt P42338); assay: Inhibition of PI3Kbeta (unknown origin) using PIP2 as substrate incubated for 60 mins in presence of ATP by ADP-Glo assay
[17] = Oral bioavailability in fasted Sprague-Dawley rat at 10 mg/kg measured for 24 hrs by LC-MS/MS analysis; type: ADME, organism-based; conditions: in vivo
[18] = AUC (0 to t) in fasted Sprague-Dawley rat at 10 mg/kg, po measured for 24 hrs by LC-MS/MS analysis; type: ADME, organism-based; conditions: in vivo
[19] = AUC (0 to infinity) in fasted Sprague-Dawley rat at 10 mg/kg, po measured for 24 hrs by LC-MS/MS analysis; type: ADME, organism-based; conditions: in vivo
[20] = MRT (infinity) in fasted Sprague-Dawley rat at 2 mg/kg, iv measured for 24 hrs by LC-MS/MS analysis; type: ADME, organism-based; conditions: in vivo
[21] = biological target: Phosphatidylinositol 4,5-bisphosphate 3-kinase catalytic subunit gamma isoform (Homo sapiens, UniProt P48736); assay: Inhibition of PI3Kgamma (unknown origin) using PIP2 as substrate incubated for 60 mins in presence of ATP by ADP-Glo assay
[22] = Clearance in fasted Sprague-Dawley rat at 2 mg/kg, iv measured for 24 hrs by LC-MS/MS analysis; type: ADME, organism-based; conditions: in vivo
[23] = Toxicity in nude BALB/c mouse xenografted with human HL-60 cells assessed as toxic sign in spleen at 5 to 10 mg/kg, ip administered for 21 days consecutively by H and E staining based analysis; type: organism-based; conditions: in vivo, 504 h, dose 5-10 mg/kg, time 21 day
HL-60 [24] = assay: Induction of apoptosis in human HL-60 cells assessed as viable cells at 0.5 uM incubated for 48 hrs by Annexin V-FITC/PI staining based flow cytometry (reference value: 97.4 %); type: functional; conditions: read-out: Activity
[25] = biological target: Serine/threonine-protein kinase mTOR (Homo sapiens, UniProt P42345); assay: Inhibition of N-terminal FLAG-tagged recombinant human mTOR (1362 to end residues) using ULight-4E-BP1 (Thr37/46) peptide as substrate incubated for 30 mins in presence of ATP by LANCE ultra assay
[26] = biological target: T1, Phosphatidylinositol 4,5-bisphosphate 3-kinase catalytic subunit delta isoform (Homo sapiens, UniProt O00329); assay: Inhibition of PI3Kdelta (unknown origin) using PIP2 as substrate incubated for 60 mins in presence of ATP by ADP-Glo assay
T1 sequence (O00329 whole entry): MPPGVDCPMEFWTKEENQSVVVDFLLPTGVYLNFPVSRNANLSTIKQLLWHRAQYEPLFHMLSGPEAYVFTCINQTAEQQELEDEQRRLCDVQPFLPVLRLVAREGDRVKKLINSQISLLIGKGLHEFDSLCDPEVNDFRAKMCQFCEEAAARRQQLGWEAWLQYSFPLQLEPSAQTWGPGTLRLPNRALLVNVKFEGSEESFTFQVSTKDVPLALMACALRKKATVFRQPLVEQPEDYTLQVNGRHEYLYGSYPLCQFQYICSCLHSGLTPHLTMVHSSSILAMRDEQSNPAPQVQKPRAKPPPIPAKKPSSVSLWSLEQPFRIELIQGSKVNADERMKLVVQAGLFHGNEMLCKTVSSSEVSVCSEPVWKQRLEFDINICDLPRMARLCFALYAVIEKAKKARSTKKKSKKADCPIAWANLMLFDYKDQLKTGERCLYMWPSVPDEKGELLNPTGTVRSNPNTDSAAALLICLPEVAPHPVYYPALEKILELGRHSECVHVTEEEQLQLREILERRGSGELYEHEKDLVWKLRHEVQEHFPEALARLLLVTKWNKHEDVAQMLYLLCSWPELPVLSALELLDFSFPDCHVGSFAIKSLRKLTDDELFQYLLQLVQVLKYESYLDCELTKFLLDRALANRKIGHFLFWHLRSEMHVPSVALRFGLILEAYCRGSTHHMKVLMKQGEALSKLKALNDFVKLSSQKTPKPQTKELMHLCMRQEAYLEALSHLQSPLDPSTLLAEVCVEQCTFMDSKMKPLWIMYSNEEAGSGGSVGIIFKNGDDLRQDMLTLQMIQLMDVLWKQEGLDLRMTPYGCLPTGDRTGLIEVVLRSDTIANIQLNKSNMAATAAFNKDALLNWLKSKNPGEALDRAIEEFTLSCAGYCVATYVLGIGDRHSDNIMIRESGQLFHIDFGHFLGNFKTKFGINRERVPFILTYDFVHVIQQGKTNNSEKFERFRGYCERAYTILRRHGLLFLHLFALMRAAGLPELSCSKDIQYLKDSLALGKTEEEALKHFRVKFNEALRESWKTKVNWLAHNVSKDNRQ

[27] = Toxicity in nude BALB/c mouse xenografted with human HL-60 cells assessed as toxic sign in lung at 5 mg/kg, ip administered for 21 days consecutively by H and E staining based analysis; type: organism-based; conditions: in vivo, 504 h, time 21 day
[28] = Toxicity in nude BALB/c mouse xenografted with human HL-60 cells assessed as toxic sign in heart at 5 mg/kg, ip administered for 21 days consecutively by H and E staining based analysis; type: organism-based; conditions: in vivo, 504 h, time 21 day
[29] = Toxicity in nude BALB/c mouse xenografted with human HL-60 cells assessed as body weight change at 5 mg/kg, ip administered for 21 days consecutively; type: organism-based; conditions: in vivo, 504 h, time 21 day
EOL1 = assay: Antiproliferative activity against human EOL1 cells incubated for 48 hrs by CCK8 assay; type: functional, cell-based; conditions: EOL1, 48 h
[30] = Toxicity in nude BALB/c mouse xenografted with human HL-60 cells assessed as toxic sign in kidney at 5 mg/kg, ip administered for 21 days consecutively by H and E staining based analysis; type: organism-based; conditions: in vivo, 504 h, time 21 day
HL-60 [31] = assay: Antitumor activity against human HL-60 cells xenografted in nude BALB/c mouse assessed as tumor growth inhibition at 5 mg/kg, ip administered for 21 days consecutively relative to control; type: functional; conditions: HL-60, 504 h, time 21 day, read-out: TGI
[32] = Toxicity in nude BALB/c mouse xenografted with human HL-60 cells assessed as toxic sign in liver at 5 mg/kg, ip administered for 21 days consecutively by H and E staining based analysis; type: organism-based; conditions: in vivo, 504 h, time 21 day
HL-60 [33] = assay: Antiproliferative activity against human HL-60 cells incubated for 48 hrs by CCK8 assay; type: functional, cell-based; conditions: HL-60, 48 h
KG-1 = assay: Antiproliferative activity against human KG-1 cells incubated for 48 hrs by CCK8 assay; type: functional, cell-based; conditions: KG-1, 48 h
[34] = Toxicity in nude BALB/c mouse xenografted with human HL-60 cells assessed as toxic sign in spleen at 5 mg/kg, ip administered for 21 days consecutively by H and E staining based analysis; type: organism-based; conditions: in vivo, 504 h, time 21 day
MV4-11 = assay: Antiproliferative activity against human MV4-11 cells incubated for 48 hrs by CCK8 assay; type: functional, cell-based; conditions: MV4-11, 48 h
[35] = Antiproliferative activity against human MOLM16 cells incubated for 48 hrs by CCK8 assay; conditions: MOLM16, 48 h

Chain of Phosphatidylinositol 4,5-bisphosphate 3-kinase catalytic subunit gamma isoform (P48736 whole entry, canonical isoform): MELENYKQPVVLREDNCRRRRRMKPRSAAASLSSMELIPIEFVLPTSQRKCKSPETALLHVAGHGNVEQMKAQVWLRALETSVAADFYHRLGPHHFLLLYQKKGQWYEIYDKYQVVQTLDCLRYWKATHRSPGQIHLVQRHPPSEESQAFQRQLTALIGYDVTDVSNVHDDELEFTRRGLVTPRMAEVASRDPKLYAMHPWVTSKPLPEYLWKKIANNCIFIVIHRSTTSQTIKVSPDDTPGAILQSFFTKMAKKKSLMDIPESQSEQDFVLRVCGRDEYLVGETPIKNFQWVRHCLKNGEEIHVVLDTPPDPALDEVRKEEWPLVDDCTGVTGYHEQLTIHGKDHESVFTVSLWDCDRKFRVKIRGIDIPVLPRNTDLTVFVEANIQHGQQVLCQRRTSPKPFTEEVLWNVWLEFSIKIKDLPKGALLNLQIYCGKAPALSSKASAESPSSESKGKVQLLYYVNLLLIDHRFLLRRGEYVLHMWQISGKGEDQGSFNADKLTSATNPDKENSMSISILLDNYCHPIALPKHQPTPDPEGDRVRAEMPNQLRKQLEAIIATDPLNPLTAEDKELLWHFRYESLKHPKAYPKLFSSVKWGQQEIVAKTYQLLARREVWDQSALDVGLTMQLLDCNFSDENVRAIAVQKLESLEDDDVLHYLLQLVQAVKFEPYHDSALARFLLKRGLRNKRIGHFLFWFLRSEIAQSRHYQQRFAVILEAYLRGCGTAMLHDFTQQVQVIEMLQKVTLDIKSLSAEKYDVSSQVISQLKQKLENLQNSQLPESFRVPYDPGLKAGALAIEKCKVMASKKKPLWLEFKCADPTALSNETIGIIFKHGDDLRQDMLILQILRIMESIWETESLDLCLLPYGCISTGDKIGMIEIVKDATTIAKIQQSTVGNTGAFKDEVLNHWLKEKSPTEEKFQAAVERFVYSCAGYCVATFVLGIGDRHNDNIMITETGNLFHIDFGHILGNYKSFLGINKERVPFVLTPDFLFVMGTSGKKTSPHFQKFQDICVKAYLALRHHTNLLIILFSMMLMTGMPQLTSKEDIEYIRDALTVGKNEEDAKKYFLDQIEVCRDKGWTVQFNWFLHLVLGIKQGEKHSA
Chain of Phosphatidylinositol 4,5-bisphosphate 3-kinase catalytic subunit beta isoform (P42338 whole entry, canonical isoform): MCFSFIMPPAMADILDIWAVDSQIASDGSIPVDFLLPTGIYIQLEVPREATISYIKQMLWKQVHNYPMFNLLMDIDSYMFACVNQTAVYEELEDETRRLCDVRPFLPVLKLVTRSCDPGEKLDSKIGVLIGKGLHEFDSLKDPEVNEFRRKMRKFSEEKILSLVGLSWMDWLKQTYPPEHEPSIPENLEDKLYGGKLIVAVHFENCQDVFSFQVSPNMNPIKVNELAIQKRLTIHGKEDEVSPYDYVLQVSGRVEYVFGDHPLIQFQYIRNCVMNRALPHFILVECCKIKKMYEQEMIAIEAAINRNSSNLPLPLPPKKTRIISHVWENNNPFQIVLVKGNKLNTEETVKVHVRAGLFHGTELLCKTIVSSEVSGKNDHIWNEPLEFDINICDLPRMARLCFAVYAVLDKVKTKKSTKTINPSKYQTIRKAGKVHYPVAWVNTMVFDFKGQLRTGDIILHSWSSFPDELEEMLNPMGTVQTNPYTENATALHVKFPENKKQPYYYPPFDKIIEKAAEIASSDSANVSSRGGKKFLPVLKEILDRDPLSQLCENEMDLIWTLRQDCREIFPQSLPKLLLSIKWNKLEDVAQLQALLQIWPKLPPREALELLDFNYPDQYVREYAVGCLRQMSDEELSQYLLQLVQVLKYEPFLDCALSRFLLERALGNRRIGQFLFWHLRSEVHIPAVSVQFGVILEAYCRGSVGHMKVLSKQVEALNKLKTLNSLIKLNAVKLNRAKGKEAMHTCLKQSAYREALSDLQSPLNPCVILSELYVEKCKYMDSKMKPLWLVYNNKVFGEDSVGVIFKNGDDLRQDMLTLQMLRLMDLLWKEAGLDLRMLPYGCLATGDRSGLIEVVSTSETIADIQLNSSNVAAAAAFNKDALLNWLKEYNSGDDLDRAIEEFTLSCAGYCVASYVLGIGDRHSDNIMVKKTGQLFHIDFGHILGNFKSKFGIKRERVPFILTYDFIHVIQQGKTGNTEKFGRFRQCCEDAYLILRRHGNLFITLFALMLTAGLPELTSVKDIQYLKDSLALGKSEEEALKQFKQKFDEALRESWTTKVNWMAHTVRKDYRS
Chain of Phosphatidylinositol 4,5-bisphosphate 3-kinase catalytic subunit alpha isoform (P42336 whole entry, canonical isoform): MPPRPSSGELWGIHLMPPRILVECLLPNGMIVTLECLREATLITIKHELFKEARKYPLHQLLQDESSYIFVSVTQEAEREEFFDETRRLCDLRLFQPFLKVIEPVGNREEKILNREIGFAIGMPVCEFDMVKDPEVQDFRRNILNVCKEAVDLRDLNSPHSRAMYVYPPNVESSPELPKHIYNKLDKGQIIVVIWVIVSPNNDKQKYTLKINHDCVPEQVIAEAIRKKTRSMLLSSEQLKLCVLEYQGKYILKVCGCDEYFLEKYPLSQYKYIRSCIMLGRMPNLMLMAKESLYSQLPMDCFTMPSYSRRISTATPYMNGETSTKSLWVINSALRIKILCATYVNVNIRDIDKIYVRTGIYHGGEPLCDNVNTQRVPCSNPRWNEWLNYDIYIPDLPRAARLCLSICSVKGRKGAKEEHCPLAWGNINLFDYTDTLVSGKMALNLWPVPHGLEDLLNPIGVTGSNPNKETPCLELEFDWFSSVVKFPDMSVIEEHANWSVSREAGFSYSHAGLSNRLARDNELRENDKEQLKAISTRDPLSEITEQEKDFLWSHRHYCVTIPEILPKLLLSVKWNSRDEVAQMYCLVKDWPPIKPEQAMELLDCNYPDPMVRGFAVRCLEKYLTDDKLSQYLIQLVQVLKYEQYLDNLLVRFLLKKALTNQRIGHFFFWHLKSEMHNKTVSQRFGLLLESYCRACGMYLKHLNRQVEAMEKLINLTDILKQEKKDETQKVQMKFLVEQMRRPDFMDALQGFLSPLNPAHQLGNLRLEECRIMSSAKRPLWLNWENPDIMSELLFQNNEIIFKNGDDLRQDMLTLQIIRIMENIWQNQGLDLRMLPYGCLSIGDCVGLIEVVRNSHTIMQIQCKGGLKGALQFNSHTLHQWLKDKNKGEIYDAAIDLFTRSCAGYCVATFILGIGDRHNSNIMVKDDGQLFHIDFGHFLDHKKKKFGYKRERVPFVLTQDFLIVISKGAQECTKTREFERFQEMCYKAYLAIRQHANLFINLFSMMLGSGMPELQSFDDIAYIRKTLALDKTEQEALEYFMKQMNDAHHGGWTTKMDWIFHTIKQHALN

Structure (SMILES): O=S(=O)(Nc1cc(-c2cnc3[nH]nc(-c4ccncc4)c3c2)cnc1Cl)c1ccc(F)cc1
- Vd [1]: 7.26 L/kg
- half-life [2]: 4.48 h
- Cmax [3]: 0.0155 µg/mL
- pIC50 [4]: 9.19
- Activity [5]: Non-Toxic
- Activity [6]: Non-Toxic
- AUC(0-t) at 24 h [7]: 0.898 µg·h/mL
- viability at 0.25 µM (HL-60 [8]): 96.4%
- half-life [9]: 2.29 h
- Activity [10]: Non-Toxic
- Activity [11]: Non-Toxic
- viability at 1 µM (HL-60 [12]): 53.5%
- AUC(0-inf) [13]: 0.903 µg·h/mL
- Tmax [14]: 2.8 h
- Activity [15]: Non-Toxic
- pIC50 [16]: 8.80
- bioavailability [17]: 2.68%
- AUC(0-t) at 24 h [18]: 0.104 µg·h/mL
- AUC(0-inf) [19]: 0.121 µg·h/mL
- MRT inf [20]: 0.593 h
- pIC50 [21]: 9.19
- clearance [22]: 2.22 L/h/kg
- Activity [23]: Non-Toxic
- viability at 0.5 µM (HL-60 [24]): 90.4%

Structure (SMILES): O=S(=O)(Nc1cc(-c2cnc3[nH]ncc3c2)cnc1Cl)c1ccccc1
- pIC50 [25]: 7.49

Structure (SMILES): O=S(=O)(Nc1cc(-c2cnc3[nH]nc(-c4ccccc4)c3c2)cnc1Cl)c1ccccc1
- pIC50 [26]: 8.91
- pIC50 [25]: 8.58

Structure (SMILES): Cn1c(=O)n(-c2ccc(C(C)(C)C#N)cc2)c2c3cc(-c4cnc5ccccc5c4)ccc3ncc21 [DACTOLISIB]
- Activity [27]: Non-Toxic
- Activity [28]: Non-Toxic
- Activity [29]: Non-Toxic
- pIC50 (EOL1): 5.98
- Activity [30]: Non-Toxic
- inhibition in vivo at 5 mg/kg (HL-60 [31]): 62%
- Activity [32]: Non-Toxic
- pIC50 (HL-60 [33]): 6.29
- pIC50 (KG-1): 5.88
- Activity [34]: Non-Toxic
- pIC50 (MV4-11): 7.52
- pIC50 [35]: 6.30

Structure (SMILES): O=S(=O)(Nc1cc(-c2cnc3[nH]nc(-c4ccncc4)c3c2)cnc1Cl)c1ccccc1
- pIC50 [4]: 8.93
- pIC50 [26]: 9.17
- pIC50 [16]: 8.36
- pIC50 [21]: 8.13
- pIC50 [25]: 8.37
